Active and inactive are the calls of the source. No rule for the calls is given here.
biological target: Perilipin-5 (Homo sapiens) + 1-acylglycerol-3-phosphate O-acyltransferase ABHD5 (Homo sapiens) (UniProt Q00G26+Q8WTS1); assay: blockers of ABHD5 binding to perilipin-5 – biochemical, luminescence, dose response (AID 651677); conditions: ABHD5-PLIN5 interaction
Sequence (Q00G26 whole entry, looked up): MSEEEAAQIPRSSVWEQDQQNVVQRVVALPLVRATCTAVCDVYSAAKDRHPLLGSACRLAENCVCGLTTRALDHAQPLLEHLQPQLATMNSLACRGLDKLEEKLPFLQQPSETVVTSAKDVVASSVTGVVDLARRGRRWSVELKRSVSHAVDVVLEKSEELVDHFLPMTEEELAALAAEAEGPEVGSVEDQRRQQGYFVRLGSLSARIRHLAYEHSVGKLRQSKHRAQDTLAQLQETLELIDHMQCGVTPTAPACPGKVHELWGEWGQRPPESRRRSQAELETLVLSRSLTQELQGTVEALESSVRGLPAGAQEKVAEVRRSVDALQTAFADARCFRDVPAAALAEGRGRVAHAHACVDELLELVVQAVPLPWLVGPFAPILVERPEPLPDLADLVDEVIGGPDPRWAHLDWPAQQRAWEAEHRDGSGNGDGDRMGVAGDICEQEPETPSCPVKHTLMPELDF
Sequence (Q8WTS1 whole entry, looked up): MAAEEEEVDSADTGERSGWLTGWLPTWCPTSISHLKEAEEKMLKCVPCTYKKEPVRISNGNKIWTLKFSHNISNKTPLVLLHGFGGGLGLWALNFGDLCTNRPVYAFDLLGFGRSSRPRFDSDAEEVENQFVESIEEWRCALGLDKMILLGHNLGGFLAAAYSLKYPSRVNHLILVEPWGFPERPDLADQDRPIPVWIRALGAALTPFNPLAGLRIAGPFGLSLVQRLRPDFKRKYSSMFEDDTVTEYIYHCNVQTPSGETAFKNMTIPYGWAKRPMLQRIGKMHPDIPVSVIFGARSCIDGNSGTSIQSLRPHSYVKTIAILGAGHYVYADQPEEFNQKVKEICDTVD

Row | SMILES | IC50
1 | CN(C)CCOc1ccc(-c2c(-c3ccccc3)sc3ccccc23)cc1 | inactive
2 | CCCCCNC(=O)C(c1cccc2ccccc12)n1c(=O)c(-c2ccco2)nc2ccccc21 (stereo not given) | 1570 nM
3 | NC(=O)C(C(=O)/C=C/c1ccc(Cl)cc1)=C1SCCS1 | inactive
4 | CC1=CC(C)(C)Nc2ccc(OC(=O)CN3C(=O)C4CCCCC4C3=O)cc21 (stereo not given) | 2500 nM
5 | CC(=O)Oc1c(Cl)c(N2CCOCC2)c(OC(C)=O)c2ccccc12 | 4280 nM
6 | CC1=CC(C)(C)Nc2ccc(OC(=O)c3cccnc3)cc21 | 2230 nM
7 | CCN(CC)CCNC(=O)c1ccc(NC(=O)c2cn(-c3ccccc3)nc2-c2cccs2)cc1 | inactive
8 | CCN1C/C(=C/c2ccc(OC)c(O)c2)C(=O)/C(=C/c2ccc(OC)c(O)c2)C1 | 5660 nM
9 | O=C(/C(=C/O)N=Nc1ccc(Cl)cc1)c1ccncc1 | 8340 nM
10 | CCC(c1nc2ccccc2[nH]1)n1c(=O)c(-c2ccco2)nc2ccccc21 (stereo not given) | 3110 nM
11 | CN(C)CCOC1(Cc2ccc(F)cc2)CCC(C(C)(C)C)CC1 (stereo not given) | 7330 nM
12 | C#CCN(C[C@@H]1[C@@H](OC(=O)NC2CCCC2)[C@@H](OC(=O)NC2CCCC2)Cn2c(=O)ccc(=O)n21)S(=O)(=O)c1ccc(C)cc1 | 3690 nM
13 | O=C(CF)N(O)c1ccc(C=Cc2ccccc2)cc1 | > 39900 nM (inactive)
14 | Cc1cccc(NC(=O)CSc2nnc(-c3ccco3)c(-c3ccco3)n2)c1 | 1050 nM
15 | Cc1ccc(C(=O)/C=C/c2cc(Br)cc(Br)c2O)o1 | 5540 nM
16 | COc1ccc(NC(=S)N(CCCN2CCCC2)Cc2cccn2Cc2ccc(Cl)cc2)cc1Cl | inactive
17 | c1ccc(CCC2=NCCn3cccc32)cc1 | inactive
18 | CCOC(=O)N1CCN(C(=O)C[C@@H]2C[C@@]3(C(=O)OCC)CCC=C3N(Cc3ccc(Cl)cc3Cl)C2=O)CC1 | inactive
19 | O=[N+]([O-])/C=C/c1cn(Cc2ccc(F)cc2)c2ccccc12 | 3360 nM
20 | O=C1C(=O)c2c(C(=O)c3ccccc3)coc2-c2ccccc21 | 2930 nM
21 | O=C(C[n+]1cccc(CNC(=O)c2ccc(OC(F)F)cc2)c1)Nc1cccc(C(F)(F)F)c1 | inactive
22 | COc1cc(OC)cc(C(=O)NC(=S)N(Cc2ccccc2)C(C)C)c1 | inactive
23 | CCN(CC)CCC(C)OC(c1ccccc1)c1ccccc1 (stereo not given) | 3420 nM
24 | CCOC(=O)c1c(NC(=O)/C=C/C(=O)O)sc(C)c1-c1ccc(C(C)(C)C)cc1 | 6740 nM
25 | O=C(/C=C/c1ccc(NC(=O)c2ccccc2-c2ccccc2C(=O)O)cc1)c1ccccc1 | 7140 nM

Row | SMILES | IC50
26 | CCN(CC)CCOc1ccc(/C(=C(\Cl)c2ccccc2)c2ccccc2)cc1 | 2470 nM
27 | CSC(=Nc1ccccc1)N=C(SCc1ccccc1)N(C)C | 1170 nM
28 | CN(C)c1ccc(Cc2cc3c(O)ccc(O)c3cc(Cc3ccc(N(C)C)cc3)c2=O)cc1 | 1990 nM
29 | NC(=O)CCN1CCN(CCOC2Cc3cc(Cl)ccc3Sc3ccccc32)CC1 (stereo not given) | inactive
30 | CSc1nnc(NC(=O)c2nc(S(=O)(=O)Cc3cccc(C)c3)ncc2Cl)s1 | 2690 nM
31 | Cc1cccc(C)c1NC(=O)C(c1cccc2ccccc12)n1c(=O)c(-c2ccco2)nc2ccccc21 (stereo not given) | 1810 nM
32 | C#CCN(C[C@@H]1[C@@H](OC(=O)NCc2ccccc2F)[C@@H](OC(=O)NCc2ccccc2F)Cn2c(=O)ccc(=O)n21)S(=O)(=O)c1ccc(C)cc1 | 5040 nM
33 | CCC(C(=O)OCCN(CC)CC)c1ccccc1 (stereo not given) | 2550 nM
34 | N#Cc1ccccc1OCc1cn(CC(=O)c2ccc(O)cc2)nn1 | 3680 nM
35 | O=C(Nc1ccc(Cl)cc1)/C(=C/c1cccc(O)c1)c1nc2ccccc2s1 | 2100 nM
36 | Cc1ccc(C(=O)c2coc3c2C(=O)C(=O)c2ccccc2-3)cc1 | 2530 nM
37 | O=c1[nH]c(C2CCN(S(=O)(=O)c3ccc(S(=O)(=O)NC4CC4)cc3)CC2)nc2c1nnn2Cc1ccc(F)cc1 | 5660 nM
38 | CCC1(C)N=C(c2ccc3c(c2)OCO3)CC(c2ccccc2O)N1 (stereo not given) | 1570 nM
39 | C=CC(=O)N1c2ccccc2Sc2ccc(NC(=O)OCC)cc21 | 6060 nM
40 | COC/C=C/C1=CC2=CC(=O)C(C)(OC(=O)C3CCCC3)C(=O)C2=CO1 (stereo not given) | 1750 nM
41 | Cc1oc2c(c1C(=O)c1ccc(Cl)cc1)C(=O)C(=O)c1ccccc1-2 | 1980 nM
42 | O=C(NC1CCCCC1)C(c1ccnc2ccccc12)n1c(=O)c(-c2ccco2)nc2ccccc21 (stereo not given) | 1660 nM
43 | CCCCCNC(=O)C(c1ccc(OC)cc1)n1c(=O)c(-c2ccco2)nc2ccccc21 (stereo not given) | 2180 nM
44 | COc1ccc(C(C(=O)Nc2ccc3c(c2)OCCO3)n2c(=O)c(-c3ccco3)nc3ccccc32)cc1 (stereo not given) | 7560 nM
45 | Cc1ccc2nc3cc([N+](=O)[O-])cc([N+](=O)[O-])c3cc2c1 | 600 nM
46 | CC(=O)Oc1c(Cl)cc(N(C(C)=O)S(=O)(=O)c2ccccc2)c2ccccc12 | 6550 nM
47 | Cc1cccc(C)c1NC(=O)C(c1ccccc1F)n1c(=O)c(-c2ccco2)nc2ccccc21 (stereo not given) | 2730 nM
48 | Cc1ccc(NC(=O)CSc2nnc(-c3ccco3)c(-c3ccco3)n2)cc1 | 1180 nM
49 | COc1ccc(C(C(=O)Nc2c(C)cccc2C)n2c(=O)c(-c3ccco3)nc3ccccc32)cc1 (stereo not given) | 2380 nM
50 | O=C(/C(=C/c1ccccc1)n1cncn1)c1ccc(Cl)cc1Cl | 2490 nM

Row | SMILES | IC50
51 | O=c1c(-c2ccco2)nc2ccccc2n1C(CCc1ccccc1)c1nc2ccccc2[nH]1 (stereo not given) | 1580 nM
52 | Cc1ccc(C(=O)c2c(C)oc3c2C(=O)C(=O)c2ccccc2-3)cc1 | 3820 nM
53 | O=C(O)CC(O)(CC(=O)O)C(=O)O | 5630 nM
54 | O=C(NCc1ccccc1)C(c1ccccc1)n1c(=O)c(-c2ccco2)nc2ccccc21 (stereo not given) | 2800 nM
55 | CCc1nnc(NC(=O)c2nc(S(=O)(=O)Cc3cccc(C)c3)ncc2Cl)s1 | 3330 nM
56 | CCCCCCC=C1CCC(CN2CCCC2)C1=O (stereo not given) | 1940 nM
57 | Cc1ccc(/C=C/C(=O)c2cc(Br)ccc2OC(=O)c2ccco2)cc1 | 922 nM
58 | CCCCOC(=O)Nc1cc(C(=O)OC)ccc1C(=O)OC | 6700 nM
59 | N#Cc1ccc(C(C(=O)NC2CCCCC2)n2c(=O)c(-c3ccco3)nc3ccccc32)cc1 (stereo not given) | 1880 nM
60 | COc1ccc(C(C(=O)NCc2ccccc2)n2c(=O)c(-c3ccco3)nc3ccccc32)cc1 (stereo not given) | 2220 nM
61 | Cc1ccc(/C(O)=C2/C(=O)C(=O)OC2c2ccc(Cl)cc2)cc1 (stereo not given) | 9720 nM
62 | COc1cc(C(C)=O)ccc1OCc1cn(CC(=O)c2ccc(O)cc2)nn1 | 4430 nM
63 | CN(C)CCCN(C(=O)CCc1ccccc1)c1nc2ccc(Cl)cc2s1 | 7370 nM
64 | Cc1ccc2sc(N(CCCN(C)C)C(=O)CN3C(=O)c4ccccc4C3=O)nc2c1C | inactive
65 | CCOc1cc(N)c(Cl)cc1C(=O)NCC1CN(Cc2ccc(F)cc2)CCO1 (stereo not given) | 2500 nM
66 | CCN(CC)CCOCCOC(=O)C1(c2ccccc2)CCCC1 | 2030 nM
67 | O=C1CC(c2ccc(Cl)cc2)Oc2ccc(Cl)cc21 (stereo not given) | 2840 nM
68 | CC(=O)Cc1cc(O)c2ccccc2c1OC(=O)c1ccccc1 | 1960 nM
69 | Oc1c(C(c2ccccc2)N2CCCCC2)ccc2ccccc12 (stereo not given) | 845 nM
70 | CCCCC(=O)NC(c1cccc([N+](=O)[O-])c1)c1ccc2cccnc2c1O (stereo not given) | > 39800 nM (inactive)
71 | CCOC(=O)c1c(NC(C)=O)sc2c1CCC(C=O)=C2Sc1ccccc1 | 2400 nM
72 | COC(=O)c1cc(=O)n(Cc2ccco2)c(=Nc2ccc(F)cc2)s1 | 3680 nM
73 | Cc1cccc(C)c1NC(=O)C(c1ccccc1)n1c(=O)c(-c2ccco2)nc2ccccc21 (stereo not given) | 5190 nM
74 | CCN1CCN(Cc2ccc(NC(=O)c3ccc(C)c(/C=C/c4cnc(Nc5cc(N6CCNCC6)nc(C)n5)cn4)c3)cc2C(F)(F)F)CC1 | 2580 nM
75 | CN1CCC[C@@H]1CCO[C@](C)(c1ccccc1)c1ccc(Cl)cc1 | inactive

Row | SMILES | IC50
76 | CC(=O)C1=C(c2cccc([N+](=O)[O-])c2)N(C(C)=O)n2c(C)nnc2S1 | 2860 nM
77 | O=C(NC1CCCCC1)C(C1CC1)n1c(=O)c(-c2ccco2)nc2ccccc21 (stereo not given) | 2380 nM
78 | CN1CCC(=C2c3ccccc3CC(=O)c3sccc32)CC1 | inactive
79 | N#Cc1ccc(C(C(=O)Nc2ccc3c(c2)OCCO3)n2c(=O)c(-c3ccco3)nc3ccccc32)cc1 (stereo not given) | 7270 nM
80 | Cc1ccc(SC2=C(Sc3ccc(C)cc3)C(=O)c3ccccc3C2=O)cc1 | 1000 nM
81 | O=C1NC(=S)NC(=O)C12C(c1ccccc1)NC(=S)NC2c1ccccc1 (stereo not given) | 4390 nM
82 | CN(C)CCCN(C(=O)CCc1ccccc1)c1nc2ccc(Br)cc2s1 | 7910 nM
83 | Cc1cccc(C)c1NC(=O)C(c1ccc(C#N)cc1)n1c(=O)c(-c2ccco2)nc2ccccc21 (stereo not given) | 2450 nM
84 | O=C(NCc1ccccc1)C(C1CC1)n1c(=O)c(-c2ccco2)nc2ccccc21 (stereo not given) | 7200 nM
85 | COc1ccc(C)c2sc(N(CCN(C)C)C(=O)/C=C/c3cccs3)nc12 | 9910 nM
86 | Cc1nnc(NC(=O)c2nc(S(=O)(=O)Cc3ccccc3C)ncc2Cl)s1 | 2710 nM
87 | COc1ccc(NC(=O)C(c2ccccc2)n2c(=O)c(-c3ccco3)nc3ccccc32)cc1 (stereo not given) | 8790 nM
88 | C#CCOCCOCCOCCNc1nc(N2CCN(C(=O)CCCCCCCCCCNC(=O)[C@@H](CCSC)n3cc(CCO)nn3)CC2)nc(N2CCN(C(=O)CCCCCCCCCCNC(=O)[C@@H]([C@H](C)O)n3cc(C)nn3)CC2)n1 | > 39800 nM (inactive)
89 | COc1ccc(NC(=O)C(c2ccc(C#N)cc2)n2c(=O)c(-c3ccco3)nc3ccccc32)cc1 (stereo not given) | 8620 nM
90 | CC(=O)Nc1ccc(S(=O)(=O)N2c3ccc(F)cc3CCC2C)cc1 (stereo not given) | inactive
91 | CC(C)(C)NC(=O)C(c1ccc(C#N)cc1)n1c(=O)c(-c2ccco2)nc2ccccc21 (stereo not given) | 1850 nM
92 | Cc1ccc(O)c(C(=O)/C=C/c2ccc3c(c2)OCCCO3)c1 | 4130 nM
93 | CCOC(=O)C1CCCN(C(=O)c2cc(Nc3ccc(OC)cc3)nc3ccccc23)C1 (stereo not given) | inactive
94 | COc1cccc2sc(N(CCCN(C)C)C(=O)COc3ccc(Cl)cc3)nc12 | inactive
95 | O=C1NC(=O)N(c2ccccc2F)C(=O)/C1=C/c1ccc(Oc2ccc([N+](=O)[O-])cn2)cc1 | 1470 nM
96 | Cc1ccc(O)c(C(=O)C=Cc2ccccc2)c1 | 3140 nM
97 | O=C1NC(=O)N(Cc2ccccc2)C(=O)/C1=C\C=C\c1ccco1 | 1320 nM
98 | O=C1NC(=O)N(Cc2ccc(F)cc2)C(=O)/C1=C\C=C\c1ccco1 | 1360 nM
99 | COc1ccc(NC(=O)C(c2ccnc3ccccc23)n2c(=O)c(-c3ccco3)nc3ccccc32)cc1 (stereo not given) | 8170 nM
100 | CS(=O)(=O)c1ccc(C(=O)NCCN2C(=O)S/C(=C\c3cccnc3)C2=O)cc1[N+](=O)[O-] | 3670 nM

Source: PubChem BioAssay AID651677 (The Scripps Research Institute Molecular Screening Center, 2012)
